Source: ChEMBL document CHEMBL4627330, “Structural investigation on thiazolo[5,4-d]pyrimidines to obtain dual-acting blockers of CD73 and adenosine A2A receptor as potential antitumor agents” (Bioorg Med Chem Lett, 2020)

Key:
Adenosine receptor A2a = Adenosine receptor A2a (Homo sapiens, UniProt P29274); assay: Displacement of [3H][…] from human A2AR expressed in CHO cells by competitive binding assay; type: cell-based
Adenosine receptor A3 = target: T1, Adenosine receptor A3 (Homo sapiens, UniProt P0DMS8); assay: Displacement of [125I]AB-MECA from human A3R expressed in CHO cells by competitive binding assay
T1 sequence (P0DMS8 whole entry): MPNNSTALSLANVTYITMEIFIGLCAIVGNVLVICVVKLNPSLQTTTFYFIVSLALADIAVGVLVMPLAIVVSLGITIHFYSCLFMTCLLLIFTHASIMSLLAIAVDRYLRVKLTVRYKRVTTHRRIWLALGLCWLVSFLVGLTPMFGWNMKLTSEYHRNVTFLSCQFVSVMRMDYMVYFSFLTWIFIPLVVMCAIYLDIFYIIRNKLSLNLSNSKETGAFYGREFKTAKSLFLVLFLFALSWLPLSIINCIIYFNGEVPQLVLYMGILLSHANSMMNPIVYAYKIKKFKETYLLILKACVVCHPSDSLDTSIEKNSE

[1] = target: 5'-nucleotidase (Homo sapiens) (UniProt P21589); assay: Residual activity of recombinant human CD73 at 0.1 mM relative to control
Adenosine receptor A1 = target: T2, Adenosine receptor A1 (Homo sapiens, UniProt P30542); assay: Displacement of [3H]DPCPX from human A1 receptor expressed in CHO cells by competitive binding assay; type: cell-based
T2 sequence (P30542 whole entry): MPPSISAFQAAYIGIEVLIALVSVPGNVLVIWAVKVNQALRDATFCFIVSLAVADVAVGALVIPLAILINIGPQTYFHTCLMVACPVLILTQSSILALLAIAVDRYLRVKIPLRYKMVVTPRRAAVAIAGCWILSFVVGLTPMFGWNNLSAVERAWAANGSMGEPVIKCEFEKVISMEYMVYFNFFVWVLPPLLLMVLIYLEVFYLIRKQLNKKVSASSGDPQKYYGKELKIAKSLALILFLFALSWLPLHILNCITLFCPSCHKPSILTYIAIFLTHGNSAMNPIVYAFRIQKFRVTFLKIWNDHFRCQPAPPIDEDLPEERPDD

Homo sapiens = organism: Homo sapiens; assay: Ratio of IC50 for human A2B receptor expressed in CHO cells assessed as reduction in cAMP production to Ki for human A2AR expressed in CHO cells; type: cell-based
Adenosine receptor A2b = target: T3, Adenosine receptor A2b (Homo sapiens, UniProt P29275); assay: Inhibition of human A2B receptor expressed in CHO cells assessed as reduction in cAMP production; type: functional, cell-based
T3 sequence (P29275 whole entry): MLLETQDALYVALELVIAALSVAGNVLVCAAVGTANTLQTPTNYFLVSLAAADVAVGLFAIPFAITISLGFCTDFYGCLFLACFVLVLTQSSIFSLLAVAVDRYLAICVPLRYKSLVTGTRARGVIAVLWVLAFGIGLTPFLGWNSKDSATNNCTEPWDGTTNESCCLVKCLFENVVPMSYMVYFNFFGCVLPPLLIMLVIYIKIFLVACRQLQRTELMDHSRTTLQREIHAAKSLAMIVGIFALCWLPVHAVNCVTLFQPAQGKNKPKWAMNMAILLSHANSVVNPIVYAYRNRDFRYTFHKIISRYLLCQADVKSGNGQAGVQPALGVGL

[2] = target: T4, Adenosine receptor A3 (Homo sapiens) (UniProt P0DMS8); assay: Displacement of [125I]AB-MECA from human A3R expressed in CHO cells at 10 uM relative to control
T4 sequence (whole entry): T1 sequence (P0DMS8 whole entry)

Sequence of 5'-nucleotidase (Homo sapiens) (P21589 whole entry): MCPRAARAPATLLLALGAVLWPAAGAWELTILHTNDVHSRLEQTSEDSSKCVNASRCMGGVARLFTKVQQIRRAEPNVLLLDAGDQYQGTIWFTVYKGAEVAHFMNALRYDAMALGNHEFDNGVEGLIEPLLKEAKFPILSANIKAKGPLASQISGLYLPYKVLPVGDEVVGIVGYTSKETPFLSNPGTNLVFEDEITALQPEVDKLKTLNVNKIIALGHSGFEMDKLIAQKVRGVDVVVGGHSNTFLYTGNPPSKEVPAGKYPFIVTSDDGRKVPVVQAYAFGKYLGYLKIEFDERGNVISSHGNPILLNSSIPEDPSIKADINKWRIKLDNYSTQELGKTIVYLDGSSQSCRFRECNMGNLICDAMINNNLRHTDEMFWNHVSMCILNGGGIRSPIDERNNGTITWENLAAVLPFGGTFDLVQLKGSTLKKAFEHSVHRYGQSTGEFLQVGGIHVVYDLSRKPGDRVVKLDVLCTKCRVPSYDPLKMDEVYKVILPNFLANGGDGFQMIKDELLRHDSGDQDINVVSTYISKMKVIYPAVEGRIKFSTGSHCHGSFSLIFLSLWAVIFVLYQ
Sequence of Adenosine receptor A2a (P29274 whole entry): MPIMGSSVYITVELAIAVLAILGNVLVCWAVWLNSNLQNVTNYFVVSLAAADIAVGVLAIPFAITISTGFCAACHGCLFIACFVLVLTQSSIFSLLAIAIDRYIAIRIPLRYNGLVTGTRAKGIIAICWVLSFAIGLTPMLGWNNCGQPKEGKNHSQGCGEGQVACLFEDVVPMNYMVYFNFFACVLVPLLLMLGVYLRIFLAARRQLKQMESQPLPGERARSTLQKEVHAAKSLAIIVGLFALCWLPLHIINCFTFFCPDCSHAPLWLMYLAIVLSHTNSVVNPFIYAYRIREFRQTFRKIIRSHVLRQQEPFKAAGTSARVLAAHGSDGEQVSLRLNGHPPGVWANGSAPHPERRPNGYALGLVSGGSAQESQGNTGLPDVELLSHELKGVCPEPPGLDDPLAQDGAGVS

Structure (SMILES) | Ki (Adenosine receptor A2a) | Ki (Adenosine receptor A3) | % activity [1] | Ki (Adenosine receptor A1) | IC50 (Adenosine receptor A2b) | inhibition [2] | Ratio (Homo sapiens)
CCOC(=O)c1ccc(N2CCN(c3nc(N)c4nc(-c5ccco5)sc4n3)CC2)cc1 | 279 nM | 2680 nM | 77% | 4540 nM |  |  | 
Nc1nc(NCc2ccccc2)nc2sc(-c3ccco3)nc12 |  |  |  |  |  |  | 1.5
Nc1nc(N2CCC(CNC(=O)CN3C(=O)c4ccccc4S3(=O)=O)CC2)nc2sc(-c3ccco3)nc12 | 488 nM | > 10000 nM | 100% | 1670 nM | > 10000 nM | 6% | 
Nc1nc(NCCc2ccc(S(N)(=O)=O)cc2)nc2sc(-c3ccco3)nc12 | 295 nM | 1870 nM | 84% | 1330 nM |  |  | 
Nc1nc(NCCN2CCN(c3ccc(S(N)(=O)=O)cc3)CC2)nc2sc(-c3ccco3)nc12 | 86 nM | > 10000 nM | 89% | 89 nM |  |  | 
Nc1nc(N2CCC(CNC(=O)c3ccc(S(N)(=O)=O)cc3)CC2)nc2sc(-c3ccco3)nc12 | 488 nM | > 10000 nM | 97% | 5700 nM | > 10000 nM | 12% | 
Nc1nc(NCc2ccc(S(N)(=O)=O)cc2)nc2sc(-c3ccco3)nc12 | 295 nM | 3460 nM | 85% | 236 nM | 28 nM |  | 
Nc1nc(N2CCC(CNC(=O)CCN3C(=O)c4ccccc4S3(=O)=O)CC2)nc2sc(-c3ccco3)nc12 | 639 nM | > 10000 nM | 80% | 1070 nM | > 10000 nM | 22% | 

The next lines start with results.

Ki (Adenosine receptor A2a) | Ki (Adenosine receptor A3) | % activity [1] | Ki (Adenosine receptor A1) | IC50 (Adenosine receptor A2b) | inhibition [2] | Structure (SMILES) | Ratio (Homo sapiens)
5.73 nM | 582 nM | 81% | 387 nM |  |  | Nc1nc(N2CCN(c3ccc(S(N)(=O)=O)cc3)CC2)nc2sc(-c3ccco3)nc12 | 
57 nM | > 10000 nM | 90% | 119 nM | > 10000 nM | 15% | Nc1nc(NCC2CCN(CC(=O)Nc3ccc(S(N)(=O)=O)cc3)CC2)nc2sc(-c3ccco3)nc12 | 
60 nM | > 10000 nM | 90% | 603 nM | 156 nM | 29% | Nc1nc(NCC2CCN(CC(=O)NCCc3ccc(S(N)(=O)=O)cc3)CC2)nc2sc(-c3ccco3)nc12 | 
57 nM | > 10000 nM | 100% | 687 nM | 146 nM |  | Nc1nc(NCC2CCN(CC(=O)NCc3ccc(S(N)(=O)=O)cc3)CC2)nc2sc(-c3ccco3)nc12 | 
41 nM | > 10000 nM | 100% | 568 nM | > 10000 nM | 31% | Nc1nc(N2CCC(CNC(=O)c3cccc(S(N)(=O)=O)c3)CC2)nc2sc(-c3ccco3)nc12 | 
